Biological target: T1, ΔF508-CFTR (Homo sapiens, UniProt P13569, DEL508-508)
T1 construct: expressed in transfected cells; host or cells: Fischer rat thyroid (FRT) epithelial cells, stably transfected
Assay: Short-circuit current (apical membrane chloride current) corrector assay in ΔF508-CFTR expressing FRT cells
Type: cell-based
Procedure: Short-circuit current measurements. ΔF508-CFTR-expressing FRT cells were cultured on Snapwell inserts for 7-9 days. For corrector testing, test compounds were incubated with FRT cells for 18-24 h at 37° C. prior to measurements. For potentiator testing, the FRT cells were incubated for 18-24 h at 27° C. prior to measurements. The basolateral solution contained 130 mM NaCl, 2.7 mM KCl, 1.5 mM KH2PO4, 1 mM CaCl2, 0.5 mM MgCl2, 10 mM glucose, and 10 mM Na-HEPES (pH 7.3). In the apical bathing solution, 65 mM NaCl was replaced by Na gluconate, and CaCl2 was increased to 2 mM. Solutions were bubbled with air and maintained at 37° C. The basolateral membrane was permeabilized with 250 μg/ml amphotericin B. Hemichambers were connected to a DVC-1000 voltage clamp (World Precision Instruments Inc.) via Ag/AgCl electrodes and 1 M KCl agar bridges for recording of short-circuit current.
Short-circuit current was measured as a definitive electrophysiological assay to verify Compound 22 corrector action. Apical membrane chloride current was measured in ΔF508-CFTR expressing FRT cells after basolateral membrane permeabilization and in the presence of a transepithelial chloride gradient (apical, 65 mM; basolateral, 130 mM). In FIG. 3C, incubation with Corr-4a (5 μM) is shown as reference (right). Forskolin (20 μM), genistein (50 μM) and CFTRinh-172 (10 μM) were added where indicated. […] FIG. 3D summarizes Compound 22 concentration dependence data from short-circuit current studies. […]
Short-circuit current was measured in an electrophysiology assay to verify corrector activity. Apical membrane chloride current was measured in ΔF508-CFTR expressing FRT cells after basolateral membrane permeabilization and in the presence of a transepithelial chloride gradient. […] To assay potentiator activity apical membrane chloride current was measured after low-temperature rescue, in response to CP-3 addition. CP-3 concentration-dependent increases in apical membrane current were measured in the presence of 5 μM forskolin. […]

T1 sequence (P13569 with tags, fused parts or gaps DEL508-508): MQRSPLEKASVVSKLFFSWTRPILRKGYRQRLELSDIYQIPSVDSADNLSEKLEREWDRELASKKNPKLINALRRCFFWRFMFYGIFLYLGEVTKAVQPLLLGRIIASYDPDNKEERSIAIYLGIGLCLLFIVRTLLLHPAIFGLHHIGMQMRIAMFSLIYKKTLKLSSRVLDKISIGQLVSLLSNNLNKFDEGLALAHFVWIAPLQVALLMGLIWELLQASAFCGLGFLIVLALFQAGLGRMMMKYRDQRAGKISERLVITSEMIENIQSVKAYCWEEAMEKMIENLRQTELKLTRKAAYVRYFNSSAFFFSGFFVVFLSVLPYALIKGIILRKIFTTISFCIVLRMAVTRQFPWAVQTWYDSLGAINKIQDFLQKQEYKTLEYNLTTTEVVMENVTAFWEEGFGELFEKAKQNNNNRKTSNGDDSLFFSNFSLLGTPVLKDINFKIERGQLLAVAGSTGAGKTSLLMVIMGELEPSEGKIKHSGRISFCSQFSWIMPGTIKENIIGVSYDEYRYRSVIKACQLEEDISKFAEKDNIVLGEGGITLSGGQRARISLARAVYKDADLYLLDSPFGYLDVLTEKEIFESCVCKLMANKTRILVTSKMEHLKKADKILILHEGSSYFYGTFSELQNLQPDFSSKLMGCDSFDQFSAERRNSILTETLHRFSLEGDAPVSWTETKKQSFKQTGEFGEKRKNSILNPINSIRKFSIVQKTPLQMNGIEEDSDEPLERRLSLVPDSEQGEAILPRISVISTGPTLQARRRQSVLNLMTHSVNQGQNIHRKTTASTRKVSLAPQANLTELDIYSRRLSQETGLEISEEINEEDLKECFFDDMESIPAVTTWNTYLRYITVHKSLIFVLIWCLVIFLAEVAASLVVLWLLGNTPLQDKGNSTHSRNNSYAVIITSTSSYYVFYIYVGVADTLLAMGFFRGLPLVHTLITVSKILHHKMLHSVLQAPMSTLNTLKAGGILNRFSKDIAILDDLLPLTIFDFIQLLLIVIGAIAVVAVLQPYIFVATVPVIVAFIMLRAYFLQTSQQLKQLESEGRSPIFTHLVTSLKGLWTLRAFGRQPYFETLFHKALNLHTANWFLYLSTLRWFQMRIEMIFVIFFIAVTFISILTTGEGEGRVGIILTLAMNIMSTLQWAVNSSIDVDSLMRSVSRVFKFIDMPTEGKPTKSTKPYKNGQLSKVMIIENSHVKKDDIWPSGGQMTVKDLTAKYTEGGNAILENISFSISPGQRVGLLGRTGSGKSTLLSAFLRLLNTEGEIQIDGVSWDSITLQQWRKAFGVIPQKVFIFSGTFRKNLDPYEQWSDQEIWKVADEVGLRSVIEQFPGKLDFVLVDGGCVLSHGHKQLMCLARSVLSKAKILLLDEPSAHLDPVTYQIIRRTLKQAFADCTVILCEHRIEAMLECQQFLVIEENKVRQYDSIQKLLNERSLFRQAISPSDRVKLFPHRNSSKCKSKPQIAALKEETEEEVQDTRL

## COc1cccc(C(=O)NCCNc2nc3cc(C)cc(C)c3cc2C#N)c1 [Compound 22, N-(2-((3-Cyano-5,7-dimethylquinolin-2-yl)amino)ethyl)-3-methoxybenzamide]
5 and 10 μM, 18-24 h incubation
  increase in apical membrane current (corrector): comparable to that conferred by 5 μM Corr-4a
Electrophysiological analysis
  corrector and potentiator maximum efficacy: comparable to those of the bithiazole Corr-4a and the flavone genistein

— US9073863B2, “Cyanoquinoline compounds having activity in correcting mutant-CFTR processing and increasing ion transport and uses thereof” (The Regents of the University of California, priority 2011, dated 2015)
